According to PubChem BioAssay (NCI):
Values joined by “and” are separate entries in the source; they are usually repeats but may differ in a detail not shown here. Equal values may be shown once.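 Method: 48-hour compound exposure of cells in 96-well plates, five concentrations, linear interpolation of endpoints. The concentration for 50% growth inhibition is given as GI50. TGI marks complete inhibition of growth.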

How the values were obtained:
Experiment in all cases: inhibition of tumour cell growth, NCI panel, 48 h
NCI-H226 lung = test system: NCI-H226 lung
MDA-MB-435 = test system: MDA-MB-435
NCI-H460 lung = test system: NCI-H460 lung
OVCAR-5 ovarian = test system: OVCAR-5 ovarian
OVCAR-8 ovarian = test system: OVCAR-8 ovarian
MALME-3M melanoma = test system: MALME-3M melanoma
NCI-H23 lung = test system: NCI-H23 lung
SK-MEL-2 melanoma = test system: SK-MEL-2 melanoma

Structure (SMILES) | GI50 (NCI-H226 lung) | TGI (NCI-H226 lung) | GI50 (MDA-MB-435) | TGI (MDA-MB-435) | GI50 (NCI-H460 lung) | TGI (NCI-H460 lung) | GI50 (OVCAR-5 ovarian) | TGI (OVCAR-5 ovarian) | GI50 (OVCAR-8 ovarian) | TGI (OVCAR-8 ovarian) | GI50 (MALME-3M melanoma) | TGI (MALME-3M melanoma) | GI50 (NCI-H23 lung) | TGI (NCI-H23 lung) | GI50 (SK-MEL-2 melanoma) | TGI (SK-MEL-2 melanoma)
O=C1Nc2ccc(I)cc2/C1=C/c1cc(Br)c(O)c(Br)c1 | > 25 µM and 27.8 µM | > 25 µM and 81.2 µM | 15 µM and 13.2 µM | > 100 µM | > 17.4 µM and 17 µM | > 25 µM and 44.1 µM | > 25 µM and 21.5 µM | > 25 µM and 51.7 µM | > 25 µM and 23.8 µM | > 96.5 µM | 5.9 µM and 4.62 µM | 22.2 µM and > 64.5 µM | > 17 µM and 18.1 µM | > 25 µM and 55 µM | 19.6 µM and 14.7 µM | > 25 µM and 37.5 µM
COc1cc(F)c(F)c(F)c1C(=O)c1cnc(NC2CCN(S(C)(=O)=O)CC2)nc1N | 1.86 µM | 15.7 µM | 0.782 µM | 7.18 µM | 0.428 µM | > 25 µM | 1.45 µM | > 25 µM | 2.28 µM | > 25 µM | 3.95 µM | 11.3 µM | 1.24 µM | 14.8 µM | 3.02 µM | 7.46 µM
CN(C)CCCn1c2c(c3ccc(N4CCNCC4)cc3c1=O)C(=O)c1ccccc1-2 | 0.564 µM | 2.9 µM | 1.2 µM | 2.67 µM | 0.307 µM | 1.56 µM | 2.12 µM | 5.57 µM | 0.403 µM | 1.99 µM | 1.42 µM | 3.46 µM | 1.05 µM | 2.64 µM | 1.71 µM | 3.38 µM
O=C(c1ccco1)c1c(C(F)(F)F)n([O-])c2cc(Cl)c(Cl)cc2[n+]1=O | 1.15 µM | 3.01 µM | 0.877 µM | 1.81 µM | 0.121 µM | 0.361 µM | 0.935 µM | 1.76 µM | 1.03 µM | 6.6 µM | 0.824 µM | 1.81 µM | 0.545 µM | 1.36 µM | 3.07 µM | 8.89 µM
C/C=C/C(C/C=C(\C)CO[Si](C)(C)C(C)(C)C)O[Si](C)(C)C(C)(C)C (stereo not drawn) |  | > 100 µM |  | > 100 µM |  | > 100 µM |  | > 100 µM |  | > 100 µM |  | > 100 µM |  | > 100 µM |  | > 100 µM
COc1ncc(-c2ccc3nc(N)n(-c4ccccc4C(F)(F)F)c(=O)c3c2)cc1S(=O)(=O)Nc1ccc(F)cc1F | 8.68 µM | > 100 µM | 1.11 µM | 4.28 µM | 5.03 µM | 36.6 µM | 1.03 µM | 9.81 µM | 3.55 µM | > 100 µM | 6.53 µM | 34.4 µM | 0.693 µM | 38.1 µM | 2.28 µM | 11.9 µM
COc1cnc2c(c1)C(=O)c1c-2n(CCCN2CCNCC2)c(=O)c2cc(F)ccc12 | 0.15 µM | 0.507 µM | 0.578 µM | 2.01 µM | 0.0252 µM | 0.275 µM | 0.334 µM | 1.51 µM | 0.126 µM | 1.25 µM | 1.13 µM | 2.56 µM | 0.233 µM | 1.47 µM | 1.71 µM | 3.37 µM
CC[C@@]12CC(C(=O)OC)=C3Nc4ccccc4[C@@]34CCN(C[C@H]3O[C@H]31)[C@@H]24 |  |  | 16.2 µM | 44.1 µM | 46.6 µM | > 100 µM | > 100 µM | > 100 µM | > 100 µM | > 100 µM | 30.5 µM | > 100 µM | 60.7 µM | > 100 µM | 25.1 µM | > 100 µM
CC(C)CC(=O)O[C@H]1C(=O)O[C@@H]2C[C@H]3[C@H](C)C(=O)C(O[C@@H]4O[C@H](CO)[C@@H](O)[C@H](O)[C@H]4O)=C[C@]3(C)[C@H]3[C@@H](O)[C@H](O)[C@]4(C(=O)O)OC[C@]32[C@@H]14 | 29.2 µM | 92 µM |  | > 100 µM | 27.5 µM | > 100 µM |  | > 100 µM | > 100 µM | > 100 µM | 22.8 µM | 56.3 µM |  | > 100 µM |  | 
Cc1ccccc1C1N=C2Oc3ccccc3C=C2C(=O)N1 (stereo not drawn) | > 100 µM | > 100 µM | 0.244 µM | 0.824 µM | 4.34 µM | > 100 µM | 2.51 µM | > 100 µM | 10.9 µM | > 100 µM |  |  | 2.5 µM | > 100 µM | 0.535 µM | > 100 µM
O=C(/C=C/c1c[nH]c2ccccc12)c1ccccc1O |  | 42.8 µM |  | 27.9 µM |  | 28.3 µM |  | 28.8 µM |  | 39.2 µM |  | 29.3 µM |  |  |  | 18.6 µM
O=C(/C=C/c1ccccc1)c1ccccn1 |  | 37.5 µM and > 100 µM |  | 44.7 µM and 88.7 µM |  | 32.7 µM and 49.1 µM | 11.5 µM and 24.2 µM | 29 µM and > 100 µM |  | 34.6 µM and > 100 µM |  |  |  | 33.3 µM and 35.5 µM |  | 43.8 µM
COc1ccc2c(c1)c(-c1nc(-c3cn(C)c4ncccc34)cs1)cn2CCCCN1CCCCC1 | 1.52 µM | 3.11 µM | 1.66 µM | 3.04 µM | 1.68 µM | 3.2 µM | 1.65 µM | 3.08 µM |  |  |  |  | 1.75 µM | 3.28 µM |  | 
N#CCC1CCN(c2nc(Nc3ccc(N4CCC(O)CC4)cc3)c3c(=O)[nH]ncc3n2)CC1 | 0.639 µM | > 100 µM | 0.628 µM | > 100 µM | 0.692 µM | > 100 µM | 1.22 µM | > 100 µM | 8.08 µM | > 100 µM |  |  | 0.732 µM | > 100 µM |  | 
COc1cc(C(=O)N[C@@H]2CCCN(C)C2)ccc1Nc1ncc2c(n1)N(C1CCCC1)CC(C)(C)C(=O)N2C | 0.633 µM | 21.9 µM |  |  | 0.04 µM | 14.8 µM | 0.0608 µM | 17.5 µM | 0.0541 µM | 16.8 µM | 2.03 µM | 10.6 µM | 0.041 µM | 3.01 µM |  | 
OC1(c2ccccc2)c2ccccc2N(c2ccccc2)c2ccc(Cl)cc21 (stereo not drawn) |  |  | 0.213 µM | 0.631 µM | 0.246 µM | 0.568 µM | 0.457 µM | 1.28 µM | 0.287 µM | 1.25 µM | 0.237 µM | 0.643 µM | 0.32 µM | 1.38 µM | 0.24 µM | 0.485 µM
C=CN(C(=O)N1CCN(c2cc3c(cc2F)c(=O)c(C(=O)O)cn3C2CC2)CC1)c1nc(-c2ccc(C)cc2)cs1 | 2.91 µM | > 100 µM |  |  | 3.38 µM | > 100 µM | 4.14 µM | > 100 µM | 3.33 µM | 19.9 µM | 3.35 µM | > 100 µM | 3.12 µM | 16.1 µM |  | 
